# Data reported in publication PMC6261043, “Characterization of a heat responsive UDP: Flavonoid glucosyltransferase gene in tea plant (Camellia sinensis)” (PLoS ONE, 2018).
# Molecular target: T1, UGT73A17 (rUGT73A17, CsUGT73A17) (Camellia sinensis, UniProt W6JMN6, L296I/A466V, form not given)
# T1 construct: gene CsUGTC1; full-length ORF (1422 bp, 473 residues) from tea EST library, N-terminal MBP fusion (pMAL-c2X), E. coli Novablue, purified
# Experiment: HPLC product quantification, Lineweaver-Burk
# Format: biochemical
# Details: UDP-glucose as sugar donor, 100 mM Tris-HCl pH 7.0, 30°C
# T1 sequence (W6JMN6 entry or part of it L296I/A466V, form open): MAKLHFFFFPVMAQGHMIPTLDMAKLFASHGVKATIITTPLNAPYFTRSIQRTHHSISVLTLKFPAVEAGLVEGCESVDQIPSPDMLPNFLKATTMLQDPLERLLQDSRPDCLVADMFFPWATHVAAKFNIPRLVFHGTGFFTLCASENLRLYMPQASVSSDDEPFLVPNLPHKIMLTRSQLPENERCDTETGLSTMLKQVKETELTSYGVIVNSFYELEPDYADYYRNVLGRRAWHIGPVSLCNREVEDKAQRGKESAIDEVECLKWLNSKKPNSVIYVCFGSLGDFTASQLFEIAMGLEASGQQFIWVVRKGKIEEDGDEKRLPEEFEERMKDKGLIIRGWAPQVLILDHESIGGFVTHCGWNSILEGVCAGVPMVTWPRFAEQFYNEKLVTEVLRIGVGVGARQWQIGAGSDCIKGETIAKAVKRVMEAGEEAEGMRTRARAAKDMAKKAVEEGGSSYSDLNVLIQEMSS
row,Km [µM],SMILES
1,9.5 ± 5,O=C1C[C@@H](c2ccc(O)cc2)Oc2cc(O)cc(O)c21 [naringenin]
2,8.8 ± 4.3,O=c1c(O)c(-c2cc(O)c(O)c(O)c2)oc2cc(O)cc(O)c12 [myricetin]
3,5.5 ± 1.5,O=c1cc(-c2ccc(O)cc2)oc2cc(O)cc(O)c12 [apigenin]
4,5.2,O=c1c(O)c(-c2ccc(O)cc2)oc2cc(O)cc(O)c12 [kaempferol]
5,4.6 ± 0.71,O=c1cc(-c2cc(O)c(O)c(O)c2)oc2cc(O)cc(O)c12 [tricetin]
6,77 ± 5.9,O=C(O[C@H]1Cc2c(O)cc(O)cc2O[C@H]1c1ccc(O)c(O)c1)c1cc(O)c(O)c(O)c1 [epicatechin gallate]

row,SMILES,Km [µM]
1,O=c1cc(-c2ccc(O)c(O)c2)oc2cc(O)cc(O)c12 [luteolin],3.2
